Test results: PubChem BioAssay AID248 (DTP/NCI, 2004)
Where “and” joins values, the source holds several entries; their conditions need not be identical. Equal entries are not always repeated. Inconclusive results and toxic doses are left out. Cut-off read from the data, not from the text of the source: active = T/C of 150% or more; inactive = T/C below 125%.

Test system: L1210 leukemia ip in BDF1 mice, survival T/C
Assay: NCI In Vivo Anticancer Drug Screen. Data for tumor model L1210 Leukemia (intraperitoneal) in B6D2F1 (BDF1) mice
Details: endpoint: mean survival time, higher = longer survival
Outline: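 Survival endpoint. Drug-treated group vs vehicle group, expressed as T divided by C. Tumor passaged by transplantation.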

[1] = dose: 100.0 mg/kg/injection, schedule: Q04DX002 (ip), vehicle: saline with Tween-80
[2] = dose: 200.0 mg/kg/injection, schedule: Q04DX002 (ip), vehicle: saline with Tween-80
[3] = dose: 400.0 mg/kg/injection, schedule: Q04DX002 (ip), vehicle: saline with Tween-80
[4] = dose: 100.0 mg/kg/injection, schedule: Q01DX001 (ip), vehicle: saline
[5] = dose: 200.0 mg/kg/injection, schedule: Q01DX001 (ip), vehicle: saline
[6] = dose: 400.0 mg/kg/injection, schedule: Q01DX001 (ip), vehicle: saline
[7] = dose: 100.0 mg/kg/injection, schedule: Q01DX009 (ip), vehicle: saline with Tween-80
[8] = dose: 200.0 mg/kg/injection, schedule: Q01DX009 (ip), vehicle: saline with Tween-80
[9] = dose: 100.0 mg/kg/injection, schedule: Q01DX009 (ip), vehicle: saline
[10] = dose: 100.0 mg/kg/injection, schedule: Q01DX001 (ip), vehicle: Klucel (hydroxypropylcellulose) (HPC)
[11] = dose: 200.0 mg/kg/injection, schedule: Q01DX001 (ip), vehicle: Klucel (hydroxypropylcellulose) (HPC)
[12] = dose: 50.0 mg/kg/injection, schedule: Q04DX003 (ip), vehicle: Klucel (hydroxypropylcellulose) (HPC)
[13] = dose: 100.0 mg/kg/injection, schedule: Q04DX003 (ip), vehicle: Klucel (hydroxypropylcellulose) (HPC)
[14] = dose: 200.0 mg/kg/injection, schedule: Q04DX003 (ip), vehicle: Klucel (hydroxypropylcellulose) (HPC)

Measured: T/C

Cc1cc(=O)c(O)c(N(C)C)o1
inactive: [1] 102 % of control | [2] 102 % of control | [3] 115 % of control

CCCCC(=O)N/N=C/c1ccc(OC)c(O)c1
inactive: [4] 109 % of control | [5] 104 % of control | [6] 106 % of control

C[P+](Cc1ccccc1)(c1ccccc1)c1ccccc1
inactive: dose: 1.25 mg/kg/injection, schedule: Q01DX001 (ip), vehicle: other 101 % of control | dose: 2.5 mg/kg/injection, schedule: Q01DX001 (ip), vehicle: other 94 % of control | dose: 5.0 mg/kg/injection, schedule: Q01DX001 (ip), vehicle: other 98 % of control

CN(C(=O)c1ccc([N+](=O)[O-])cc1)C(c1ccco1)P(=O)(c1ccccc1)c1ccccc1 (stereo not drawn)
inactive: [7] 90 % of control | [1] 96 % of control | [8] 87 % of control | [2] 86 % of control | dose: 400.0 mg/kg/injection, schedule: Q01DX009 (ip), vehicle: saline with Tween-80 90 % of control | [3] 93 % of control

Nc1cccc(C(F)(F)F)c1
inactive: dose: 25.0 mg/kg/injection, schedule: Q01DX009 (ip), vehicle: saline 103 % of control | dose: 50.0 mg/kg/injection, schedule: Q01DX009 (ip), vehicle: saline 103 % of control | [9] 94 % of control and 88 % of control

Cc1ccc(Br)cc1C(c1cc(Br)ccc1C)C(O)C(O)C(O)C(O)CO (stereo not drawn)
inactive: dose: 50.0 mg/kg/injection, schedule: Q01DX001 (ip), vehicle: saline 106 % of control | [4] 106 % of control | [5] 110 % of control | [6] 98 % of control

Oc1ccccc1CNc1nn[nH]n1
inactive: [10] 101 % of control | [11] 108 % of control | dose: 400.0 mg/kg/injection, schedule: Q01DX001 (ip), vehicle: Klucel (hydroxypropylcellulose) (HPC) 103 % of control

CCOP(=O)(Oc1ccc([N+](=O)[O-])cc1)c1cccc(Cl)c1 (stereo not drawn)
inactive: dose: 5.0 mg/kg/injection, schedule: Q01DX001 (ip), vehicle: saline 102 % of control | dose: 10.0 mg/kg/injection, schedule: Q01DX001 (ip), vehicle: saline 111 % of control

COCC=C(C)C
inactive: dose: 50.0 mg/kg/injection, schedule: Q01DX009 (ip), vehicle: saline with Tween-80 106 % of control | [7] 92 % of control | [8] 95 % of control

O=[N+]([O-])c1ccc2c(c1)n([O-])c1ccccc1[n+]2=O
inactive: [12] 89 % of control | [10] 97 % of control | [13] 90 % of control and 92 % of control | [11] 95 % of control | [14] 97 % of control and 101 % of control

Cc1nc(Cl)c(CO)c(CO)c1O
inactive: dose: 12.5 mg/kg/injection, schedule: Q01DX009 (ip), vehicle: Klucel (hydroxypropylcellulose) (HPC) 95 % of control | dose: 25.0 mg/kg/injection, schedule: Q01DX009 (ip), vehicle: Klucel (hydroxypropylcellulose) (HPC) 98 % of control | dose: 25.0 mg/kg/injection, schedule: Q04DX003 (ip), vehicle: Klucel (hydroxypropylcellulose) (HPC) 94 % of control | dose: 50.0 mg/kg/injection, schedule: Q01DX009 (ip), vehicle: Klucel (hydroxypropylcellulose) (HPC) 92 % of control | [12] 90 % of control | [13] 106 % of control

Cc1ccc(C(O)C(=O)O)c(C)c1 (stereo not drawn)
inactive: [1] 101 % of control | [2] 89 % of control

CC(=O)C(Sc1ccccc1[N+](=O)[O-])C(C)=O.[Cr]
inactive: dose: 50.0 mg/kg/injection, schedule: Q01DX001 (ip), vehicle: other 94 % of control | dose: 100.0 mg/kg/injection, schedule: Q01DX001 (ip), vehicle: other 88 % of control | dose: 400.0 mg/kg/injection, schedule: Q01DX001 (ip), vehicle: other 88 % of control

Cc1ccc(SSSc2ccc(C)cc2[N+](=O)[O-])c([N+](=O)[O-])c1
inactive: dose: 50.0 mg/kg/injection, schedule: Q04DX002 (ip), vehicle: saline with Tween-80 88 % of control | [1] 88 % of control | [2] 98 % of control

Cc1cc[n+]2cc3c(ccc4ccccc43)c(C)c2c1
inactive: dose: 2.0 mg/kg/injection, schedule: Q01DX015 (ip), vehicle: carboxymethylcellulose (CMC) 103 % of control | dose: 4.0 mg/kg/injection, schedule: Q01DX015 (ip), vehicle: carboxymethylcellulose (CMC) 124 % of control | dose: 8.0 mg/kg/injection, schedule: Q01DX015 (ip), vehicle: carboxymethylcellulose (CMC) 117 % of control | dose: 16.0 mg/kg/injection, schedule: Q01DX015 (ip), vehicle: carboxymethylcellulose (CMC) 98 % of control | dose: 25.0 mg/kg/injection, schedule: Q01DX001 (ip), vehicle: carboxymethylcellulose (CMC) 107 % of control

CCCCCCOC(=O)Nc1cccc2ccccc12
inactive: dose: 75.0 mg/kg/injection, schedule: Q01DX009 (ip), vehicle: saline 94 % of control | dose: 150.0 mg/kg/injection, schedule: Q01DX009 (ip), vehicle: saline 99 % of control | dose: 300.0 mg/kg/injection, schedule: Q01DX009 (ip), vehicle: saline 96 % of control

CCOC(=N)Cc1cc(OC)c(OC)c(OC)c1
inactive: dose: 100.0 mg/kg/injection, schedule: Q04DX003 (ip), vehicle: saline sonified 100 % of control | dose: 200.0 mg/kg/injection, schedule: Q04DX003 (ip), vehicle: saline sonified 98 % of control | dose: 400.0 mg/kg/injection, schedule: Q04DX003 (ip), vehicle: saline sonified 102 % of control

Cc1cc(N(CCOS(C)(=O)=O)CCOS(C)(=O)=O)ccc1C=Nc1ccc(-c2csc(-c3ccccc3)n2)c(Cl)c1
inactive: dose: 20.0 mg/kg/injection, schedule: Q04DX003 (ip), vehicle: Klucel (hydroxypropylcellulose) (HPC) 121 % of control | dose: 60.0 mg/kg/injection, schedule: Q04DX003 (ip), vehicle: Klucel (hydroxypropylcellulose) (HPC) 122 % of control | dose: 80.0 mg/kg/injection, schedule: Q04DX003 (ip), vehicle: Klucel (hydroxypropylcellulose) (HPC) 120 % of control | [13] 122 % of control

CCOC(=O)Nc1ccc(C)c(Cl)c1
inactive: dose: 100.0 mg/kg/injection, schedule: Q01DX009 (ip), vehicle: Klucel (hydroxypropylcellulose) (HPC) 105 % of control | dose: 200.0 mg/kg/injection, schedule: Q01DX009 (ip), vehicle: Klucel (hydroxypropylcellulose) (HPC) 108 % of control | dose: 400.0 mg/kg/injection, schedule: Q01DX009 (ip), vehicle: Klucel (hydroxypropylcellulose) (HPC) 103 % of control

COc1cc2cc3c4cc(OC)c(OC)cc4cc[n+]3c(CCC(=O)O)c2cc1OC (tested in a mixture with another compound)
inactive: dose: 50.0 mg/kg/injection, schedule: Q04DX002 (ip), vehicle: Klucel (hydroxypropylcellulose) (HPC) 103 % of control | dose: 100.0 mg/kg/injection, schedule: Q04DX002 (ip), vehicle: Klucel (hydroxypropylcellulose) (HPC) 98 % of control | dose: 200.0 mg/kg/injection, schedule: Q04DX002 (ip), vehicle: Klucel (hydroxypropylcellulose) (HPC) 103 % of control

N#CC1C2CCC(C2)C1CCCNCCCC1C2CCC(C2)C1C#N (stereo not drawn)
inactive: dose: 100.0 mg/kg/injection, schedule: Q04DX002 (ip), vehicle: saline 97 % of control | dose: 200.0 mg/kg/injection, schedule: Q04DX002 (ip), vehicle: saline 104 % of control

CN(N)P(=O)(Nc1ccccc1)Nc1ccccc1
inactive: [12] 98 % of control | dose: 75.0 mg/kg/injection, schedule: Q01DX009 (ip), vehicle: Klucel (hydroxypropylcellulose) (HPC) 102 % of control | [13] 91 % of control | dose: 150.0 mg/kg/injection, schedule: Q01DX009 (ip), vehicle: Klucel (hydroxypropylcellulose) (HPC) 115 % of control | [14] 96 % of control | dose: 300.0 mg/kg/injection, schedule: Q01DX009 (ip), vehicle: Klucel (hydroxypropylcellulose) (HPC) 100 % of control

COC(=O)C1C2c3ccccc3C(C1C(=O)OC)[n+]1ccccc12 (stereo not drawn)
inactive: [13] 95 % of control | [14] 98 % of control

CN(N)C(=N)N
inactive: [9] 102 % of control | dose: 200.0 mg/kg/injection, schedule: Q01DX009 (ip), vehicle: saline 101 % of control | dose: 400.0 mg/kg/injection, schedule: Q01DX009 (ip), vehicle: saline 96 % of control

CCOC(=O)NC(CI)(c1ccccc1)c1ccccc1
inactive: dose: 75.0 mg/kg/injection, schedule: Q01DX001 (ip), vehicle: saline 98 % of control | dose: 150.0 mg/kg/injection, schedule: Q01DX001 (ip), vehicle: saline 97 % of control | dose: 300.0 mg/kg/injection, schedule: Q01DX001 (ip), vehicle: saline 92 % of control

O=C(CCCN1CCC(O)(c2ccc(C(F)(F)F)cc2)CC1)c1ccc(N2CCC(O)CC2)cc1
inactive: [1] 93 % of control | [2] 100 % of control
